From US20260048145A1, “COMPOSITIONS AND METHODS FOR TREATING DRUG ADDICTION” (The Children's Medical Center Corporation, priority 2022, published 2026) come the findings set out here.

Test [1] deals with T1, NK3R (Mus musculus, UniProt P47937).
T1 construct: from tissue; host or cells: whole living mice (in vivo behavioural tests)
T1 sequence (P47937 1-452): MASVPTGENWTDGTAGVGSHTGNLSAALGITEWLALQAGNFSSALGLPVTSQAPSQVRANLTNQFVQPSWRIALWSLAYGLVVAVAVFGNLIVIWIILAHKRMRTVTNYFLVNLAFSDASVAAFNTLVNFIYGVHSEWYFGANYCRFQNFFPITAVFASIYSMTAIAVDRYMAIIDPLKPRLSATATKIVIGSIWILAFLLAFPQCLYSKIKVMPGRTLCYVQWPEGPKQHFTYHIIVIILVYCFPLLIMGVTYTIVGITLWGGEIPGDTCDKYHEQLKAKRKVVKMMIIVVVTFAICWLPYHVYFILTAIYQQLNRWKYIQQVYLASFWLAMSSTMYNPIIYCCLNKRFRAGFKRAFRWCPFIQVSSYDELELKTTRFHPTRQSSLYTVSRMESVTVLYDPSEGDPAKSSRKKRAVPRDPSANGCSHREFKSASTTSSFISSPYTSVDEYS
The experiment in a line: Cocaine-induced locomotion assay with i.p. injection of senktide. The class given is in vivo, mice. The conditions noted are these: i.p. injection of senktide vs saline; distance traveled in 30-minute post-treatment period. The method, then: (§1) FIGS. 12A-12B show systemic injection of a TacR3 agonist, senktide, reduced cocaine-conditioned place preference and cocaine-induced locomotion. […] The CPP scores were calculated by subtracting the time spent in pre-conditioning phase from the time spent in post-conditioning phase, *, […], unpaired t-test.
The basal level of locomotion as well as cocaine-induced change of locomotor activity were assessed in the open field arena the same as the OFT. For chemogenetics experiments, 20 minutes after administration of either saline or CNO, mice were individually placed in the center of the test chamber, triggering the infra-red tracking system to record locomotor activity, as measured by the number of beam breaks. For optogenetic experiments, the total duration of the behavioral test was 30 minutes, which was divided into […] 5×6-min epochs (with 3-minutes laser on. 3-minutes laser off, respectively). Different groups of mice were balanced across the 8 chambers to avoid potential environmental bias.
The Tac2 gene encodes the neuropeptide neurokinin B (NKB). NKB has high affinity for neurokinin 3 receptor (NK3R, encoded by the TacR3 gene). The NKB-NK3R (ligand-receptor) signal pathway is functional in both central and peripheral nervous systems and have been implicated in diverse physiological processes, such as reproduction, inflammation, and psychiatric disorders^55. […]

Test [2] deals with T1, NK3R. The experiment in a line: Cocaine-CPP with systemic injection of senktide. The class given is in vivo, mice. The settings on record: systemic injection of senktide vs saline; CPP score. The protocol: as §1
A two-compartment CPP chamber was used with one compartment with grid rod style floor and the other with mesh style floor (Med Associates). Chamber size is 25×19×17 cm (L×D×H). Mice trajectories were tracked by infra-red photobeam detectors, and the travel distance and the duration the mice spent in the two compartments were recorded. The CPP protocol consists of three sessions that include pre-conditioning, conditioning, and post-conditioning.
The Tac2 gene encodes the neuropeptide neurokinin B (NKB). NKB has high affinity for neurokinin 3 receptor (NK3R, encoded by the TacR3 gene). The NKB-NK3R (ligand-receptor) signal pathway is functional in both central and peripheral nervous systems and have been implicated in diverse physiological processes, such as reproduction, inflammation, and psychiatric disorders^55. To evaluate the functional relevance of the NKB-NK3R pathway in addiction, an NK3R agonist, senktide, was systemically administered to mice, and then addiction-related behavioral tests were performed. […]

Numbered stars: 1 amine (or outer) side, 2 acyl side, 3 side chain; on linkers, the order of the positions; unused ones are H or OH. Square brackets hold non-standard residues; d marks the D form. Peptide text beside a SMILES is read from it. NMeF = CN[C@@H](Cc1ccccc1)C(=O)O; Suc = O=C(CCC(=O)[*:2])[*:1]

In the case of `CSCC[C@H](NC(=O)[C@H](CC(C)C)NC(=O)CNC(=O)[C@H](Cc1ccccc1)N(C)C(=O)[C@H](Cc1ccccc1)NC(=O)[C@H](CC(=O)O)NC(=O)CCC(=O)O)C(N)=O` [senktide, Suc-Asp-Phe-(Me-Phe)-Gly-Leu-Met] (Suc-DF[NMeF]GLM-NH2), on NK3R [1], the cocaine-induced locomotion entry is reported as “reduced”. Besides, the cocaine-conditioned place preference result on NK3R [2] is recorded as “reduced”.
